Assay results: patent US20150209379A1, “TREATMENT OF PROSTATE CANCER AND HEMATOLOGIC NEOPLASMS” (THOMAS JEFFERSON UNIVERSITY, priority 2012, published 2015)

Target: T1, Stat5a (Homo sapiens, UniProt P42229)
T1 sequence (P42229 1-794): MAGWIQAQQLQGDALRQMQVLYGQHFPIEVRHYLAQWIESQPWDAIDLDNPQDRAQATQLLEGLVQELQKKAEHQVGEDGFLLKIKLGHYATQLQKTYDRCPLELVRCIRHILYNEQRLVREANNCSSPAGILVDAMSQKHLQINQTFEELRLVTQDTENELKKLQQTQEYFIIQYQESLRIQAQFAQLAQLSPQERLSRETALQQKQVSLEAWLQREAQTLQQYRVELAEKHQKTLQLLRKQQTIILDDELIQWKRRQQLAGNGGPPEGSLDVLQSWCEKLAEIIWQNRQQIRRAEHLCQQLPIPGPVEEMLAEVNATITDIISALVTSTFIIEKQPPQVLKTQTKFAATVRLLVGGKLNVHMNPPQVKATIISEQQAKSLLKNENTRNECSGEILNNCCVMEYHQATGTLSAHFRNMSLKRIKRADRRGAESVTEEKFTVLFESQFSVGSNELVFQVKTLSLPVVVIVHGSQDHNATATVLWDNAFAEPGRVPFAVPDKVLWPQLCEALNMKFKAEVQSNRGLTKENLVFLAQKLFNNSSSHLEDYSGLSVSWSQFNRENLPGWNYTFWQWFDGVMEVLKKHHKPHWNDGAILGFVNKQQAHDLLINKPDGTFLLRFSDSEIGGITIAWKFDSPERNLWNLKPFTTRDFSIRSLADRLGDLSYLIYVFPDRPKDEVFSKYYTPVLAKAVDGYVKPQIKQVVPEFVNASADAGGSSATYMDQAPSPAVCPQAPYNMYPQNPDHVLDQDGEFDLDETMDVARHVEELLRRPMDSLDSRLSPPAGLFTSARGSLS
Assay: Stat5a dimerization (FLAG-/MYC-tagged Stat5a co-immunoprecipitation) in PC-3 cells
Type: cell-based
Set-up: expressed in transfected cells; host or cells: PC-3 human prostate cancer cells
Conditions: 2 hours pretreatment, then hPrl 10 nM 30 minutes
Protocol: (§1) FLAG-tagged Stat5a and MYC-tagged Stat5a were generated by standard molecular biology cloning techniques. Plasmid pCMV3-FLAG-Stat5a, pCMV3-MYC-Stat5a and pPr1R were co-transfected using FuGENE6 (Roche) into PC-3 cells (2 μg of each plasmid per 1×10^7 cells). The cells were starved for 20 hours, pretreated with test compound for 2 hours, then stimulated with hPrl (10 nM) in RPMI 1640 without serum for 30 minutes. The cell lysates were immunoprecipitated with 25 μl anti-FLAG M2 […] affinity gel (2 μg/ml, Sigma), anti-MYC pAb (1 μg/ml, Upstate) or normal rabbit serum (NRS). The primary antibodies were used in the immunoblottings at the following concentrations: anti-FLAG pAb (1:1000; Stratagene), anti-MYC mAb (1:1000; Sigma), anti-Stat5a/b mAb (1:250) (Transduction Laboratories) detected by horseradish peroxidase-conjugated secondary antibodies. The results are shown in FIG. 3A for Compound 1 and FIG. 3B for Compound 2.
Lanes 1, 2, 4, 6 and 8 represent cells stimulated with human prolactin (Prl) for 30 minutes which induces dimerization of Stat5. Two hours prior to Prl-stimulation, the cells had been treated with DMSO (lanes 1-4), the control compound C5 (lanes 7 and 8) and either Compound 1 (lanes 5 and 6 in FIG. 3A) or Compound 2 (lanes 5 and 6 in FIG. 3B). […] It should be noted the drug effect in this study was not due to cell apoptosis induction, as the treatment time was only 2 hours. Treatment of at least 48 hours is required for the compound to induce prostate cancer cell apoptosis.
as §1, with “and pPrlR” for “and pPr1R”, “hours, pre-treated” for “hours, pretreated”, “with NBPP” for “with test compound”, “2 h,” for “2 hours,”, “antibodies.” for “antibodies. The results are shown in FIG. 3A for Compound 1 and FIG. 3B for Compound 2.”
Lanes 1, 2, 4, 6 and 8 represent cells stimulated with human prolactin (Prl) for 30 minutes which induces dimerization of Stat5. Two hours prior to Prl-stimulation, the cells had been treated with DMSO (lanes 1-4), the control compound C5 (lanes 5 and 6) or NBPP (lanes 7 and 8) to test whether the Stat5a/b-inhibitor compound, NBPP, would be able to inhibit dimerization of StatS. […] It should be noted the drug effect in this study was not due to cell apoptosis induction, as the treatment time was only 2 hours. Treatment of at least 48 hours is required for the compound to induce prostate cancer cell apoptosis.
FLAG-tagged Stat5a and MYC-tagged Stat5a were generated by standard molecular biology cloning techniques.as follows. […] The primary antibodies were used in the immunoblottings at the following concentrations: anti-FLAG pAb (1:1000; Stratagene), anti-MYC mAb (1:1000; Sigma), anti-Stat5a/b mAb (1:250) (Transduction Laboratories) detected by horseradish peroxidase-conjugated secondary antibodies. […]

- effect on Stat5a dimerization: did not inhibit dimerization of Stat5a
Compound: Nc1nc(SCc2cccnc2)[nH]c(=O)c1NC(=O)c1ccco1 [Compound C5, reference compound]
